{"source": "ChEMBL document CHEMBL1201862", "about": "“PubChem BioAssay data set” (2004)", "key": {"[1]": {"biological_target": "T1, Tyrosine-protein phosphatase non-receptor type 7 (Homo sapiens, UniProt P35236)", "T1 sequence (P35236 whole entry)": "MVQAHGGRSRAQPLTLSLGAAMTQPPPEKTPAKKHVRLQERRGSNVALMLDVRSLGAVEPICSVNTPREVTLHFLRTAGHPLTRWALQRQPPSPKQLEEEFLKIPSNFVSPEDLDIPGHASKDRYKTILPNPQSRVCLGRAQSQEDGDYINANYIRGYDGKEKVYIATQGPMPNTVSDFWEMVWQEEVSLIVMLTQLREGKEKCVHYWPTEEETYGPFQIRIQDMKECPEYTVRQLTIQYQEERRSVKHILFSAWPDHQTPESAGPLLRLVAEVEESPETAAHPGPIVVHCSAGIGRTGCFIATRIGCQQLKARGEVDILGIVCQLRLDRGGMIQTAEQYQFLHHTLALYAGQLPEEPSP", "assay": "redox-active compounds inhibiting HePTP phosphatase – biochemical, fluorescence, mechanism study (AID 2068)", "format": "functional"}, "[2]": {"biological_target": "T2, Dual specificity protein phosphatase 6 (Rattus norvegicus, UniProt Q64346)", "T2 sequence (Q64346 whole entry)": "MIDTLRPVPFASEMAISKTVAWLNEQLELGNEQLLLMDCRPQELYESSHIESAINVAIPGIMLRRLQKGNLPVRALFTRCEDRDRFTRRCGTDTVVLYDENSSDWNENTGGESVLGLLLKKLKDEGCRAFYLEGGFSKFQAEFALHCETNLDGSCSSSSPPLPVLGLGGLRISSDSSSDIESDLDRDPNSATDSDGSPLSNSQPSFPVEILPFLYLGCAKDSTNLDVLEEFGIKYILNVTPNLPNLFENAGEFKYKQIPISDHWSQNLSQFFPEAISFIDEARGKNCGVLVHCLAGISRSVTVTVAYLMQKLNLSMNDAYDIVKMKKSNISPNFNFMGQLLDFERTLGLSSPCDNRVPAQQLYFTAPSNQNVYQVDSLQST"}, "[3]": {"biological_target": "Glyceraldehyde-3-phosphate dehydrogenase (Homo sapiens, UniProt P04406)", "sequence (P04406 whole entry)": "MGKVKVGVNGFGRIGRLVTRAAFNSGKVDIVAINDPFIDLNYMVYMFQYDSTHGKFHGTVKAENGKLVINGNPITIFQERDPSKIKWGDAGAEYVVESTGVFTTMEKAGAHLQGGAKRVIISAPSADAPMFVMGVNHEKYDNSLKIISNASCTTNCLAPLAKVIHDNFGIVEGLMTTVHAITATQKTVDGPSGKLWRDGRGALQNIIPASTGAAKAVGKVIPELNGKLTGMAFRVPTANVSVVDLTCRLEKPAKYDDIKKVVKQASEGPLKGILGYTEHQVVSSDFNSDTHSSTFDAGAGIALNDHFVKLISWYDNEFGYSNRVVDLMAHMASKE"}, "[4]": {"biological_target": "T2, Dual specificity protein phosphatase 6", "format": "functional"}, "[5]": {"biological_target": "T1, Tyrosine-protein phosphatase non-receptor type 7", "format": "functional"}, "[6]": {"biological_target": "T3, Dual specificity protein phosphatase 3 (Homo sapiens, UniProt P51452)", "T3 sequence (P51452 whole entry)": "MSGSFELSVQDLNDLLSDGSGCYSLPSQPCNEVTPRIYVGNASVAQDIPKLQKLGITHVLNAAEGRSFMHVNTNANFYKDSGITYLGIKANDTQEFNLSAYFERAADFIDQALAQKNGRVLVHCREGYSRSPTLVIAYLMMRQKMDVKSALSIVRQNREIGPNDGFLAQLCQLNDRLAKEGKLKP", "assay": "SAR VHR1 Fluorescent Assay for In Vitro dose response studies. [Related pubchem assays (depositor defined):AID1654, AID1661, AID1878, AID1992, AID2004, AID2070, AID2085]", "format": "functional"}, "[7]": {"biological_target": "T3, Dual specificity protein phosphatase 3", "assay": "MOA VHR1 Fluorescent secondary assay for identification of redox-state modulating compounds. [Related pubchem assays (depositor defined):AID1654, AID1661, AID1878, AID1957]"}, "[8]": {"biological_target": "T4, Polyadenylate-binding protein 1 (Homo sapiens, UniProt P11940)", "T4 sequence (P11940 whole entry, the tested form may be a part)": "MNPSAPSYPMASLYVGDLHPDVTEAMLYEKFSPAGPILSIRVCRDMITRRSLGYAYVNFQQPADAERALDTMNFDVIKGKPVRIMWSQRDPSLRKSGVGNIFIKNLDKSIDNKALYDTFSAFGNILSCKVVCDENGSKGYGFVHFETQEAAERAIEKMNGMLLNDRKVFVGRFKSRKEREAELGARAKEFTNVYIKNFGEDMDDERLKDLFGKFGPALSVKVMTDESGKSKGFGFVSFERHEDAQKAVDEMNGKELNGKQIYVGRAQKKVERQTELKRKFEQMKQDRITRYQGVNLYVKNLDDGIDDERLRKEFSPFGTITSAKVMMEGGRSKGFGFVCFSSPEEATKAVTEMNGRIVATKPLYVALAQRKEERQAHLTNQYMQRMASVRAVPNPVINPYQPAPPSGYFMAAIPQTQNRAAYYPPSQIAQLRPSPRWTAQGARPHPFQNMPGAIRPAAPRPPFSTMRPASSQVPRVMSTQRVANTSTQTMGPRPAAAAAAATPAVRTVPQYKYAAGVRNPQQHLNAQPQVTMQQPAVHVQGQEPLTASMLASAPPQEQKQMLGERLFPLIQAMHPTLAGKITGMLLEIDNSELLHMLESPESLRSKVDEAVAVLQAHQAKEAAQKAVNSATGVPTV", "assay": "MLLE domain peptide-binding blockers, IC50 – biochemical, fluorescence polarization, FITC-PAM2 peptide, dose response (AID 602259)", "format": "functional", "conditions": "read-out: IC50_Mean"}, "[9]": {"biological_target": "Potassium voltage-gated channel subfamily KQT member 2 (Rattus norvegicus, UniProt O88943)", "sequence (O88943 whole entry)": "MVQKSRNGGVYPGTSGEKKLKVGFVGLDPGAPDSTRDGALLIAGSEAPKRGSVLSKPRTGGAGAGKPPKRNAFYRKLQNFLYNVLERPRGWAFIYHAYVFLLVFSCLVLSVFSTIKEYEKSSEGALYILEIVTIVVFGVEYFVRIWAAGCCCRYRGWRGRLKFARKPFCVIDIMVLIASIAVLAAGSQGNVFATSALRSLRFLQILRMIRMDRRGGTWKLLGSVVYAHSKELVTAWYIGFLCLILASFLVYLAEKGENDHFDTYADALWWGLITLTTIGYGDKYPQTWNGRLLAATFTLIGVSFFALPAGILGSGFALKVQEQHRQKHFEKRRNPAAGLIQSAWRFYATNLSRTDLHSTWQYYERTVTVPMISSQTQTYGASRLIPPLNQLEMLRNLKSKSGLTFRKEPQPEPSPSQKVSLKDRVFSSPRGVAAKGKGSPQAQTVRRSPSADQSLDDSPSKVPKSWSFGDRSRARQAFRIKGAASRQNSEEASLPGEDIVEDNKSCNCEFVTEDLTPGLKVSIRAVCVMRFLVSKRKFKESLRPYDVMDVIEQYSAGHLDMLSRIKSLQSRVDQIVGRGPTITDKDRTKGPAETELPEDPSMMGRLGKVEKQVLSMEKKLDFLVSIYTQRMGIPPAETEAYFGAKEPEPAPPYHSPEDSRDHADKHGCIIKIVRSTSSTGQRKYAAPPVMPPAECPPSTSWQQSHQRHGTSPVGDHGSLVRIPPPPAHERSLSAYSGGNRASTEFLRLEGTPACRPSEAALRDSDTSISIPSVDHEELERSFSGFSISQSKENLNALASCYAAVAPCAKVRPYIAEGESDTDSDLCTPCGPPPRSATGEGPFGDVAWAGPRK", "assay": "potentiation of rat KCNQ2 current – cell-based, retigabine-insensitive compounds, dose response (AID 2654)", "format": "functional"}, "[10]": {"biological_target": "T4, Polyadenylate-binding protein 1", "assay": "MLLE binding blockers, Cy5 peptide tracer – biochemical, fluorescence polarization, Cy5-PAM2 peptide, secondary, miRNA deadenylation inhibitor project, dose response (AID 602260)", "format": "functional", "conditions": "read-out: IC50_Mean"}, "[11]": {"tested_on": "BJ", "assay": "BJ-TERT fibroblast viability loss – cell-based, RAS-independent, luminescence, dose response (AID 1933)", "format": "functional", "conditions": "Homo sapiens"}, "[12]": {"assay": "DRD fibroblast viability loss – cell-based, non-viral oncogenic, luminescence, dose response (AID 1934)", "format": "functional", "conditions": "Homo sapiens"}, "[13]": {"tested_on": "J774.A1", "assay": "Confirmation of image-based Screening Assay for Inhibitors of Phagocytosis. [Related pubchem assays (depositor defined):AID1029, AID1643]", "format": "functional, cell-based", "conditions": "Mus musculus"}, "[14]": {"tested_on": "BJ", "assay": "cells", "format": "functional, cell-based", "conditions": "Homo sapiens"}, "[15]": {"assay": "HEK-293T viability loss after treatment – luminescence, T-cell screen hits, cytotoxicity control for TCR NF-kB inhibitor project, dose response (AID 489026);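 also: cells exposed to compound about 14 hours before the viability readout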", "format": "functional, cell-based"}, "[16]": {"tested_on": "BJ", "assay": "BJ-TERT-LT-ST fibroblast viability loss – cell-based, RAS-independent, luminescence, dose response (AID 1935);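 also: BJ fibroblasts immortalized with TERT plus LT and ST oncogenes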", "format": "functional", "conditions": "Homo sapiens"}, "[17]": {"biological_target": "Cytochrome P450 2D6 (Homo sapiens, UniProt P10635)", "sequence (P10635 whole entry)": "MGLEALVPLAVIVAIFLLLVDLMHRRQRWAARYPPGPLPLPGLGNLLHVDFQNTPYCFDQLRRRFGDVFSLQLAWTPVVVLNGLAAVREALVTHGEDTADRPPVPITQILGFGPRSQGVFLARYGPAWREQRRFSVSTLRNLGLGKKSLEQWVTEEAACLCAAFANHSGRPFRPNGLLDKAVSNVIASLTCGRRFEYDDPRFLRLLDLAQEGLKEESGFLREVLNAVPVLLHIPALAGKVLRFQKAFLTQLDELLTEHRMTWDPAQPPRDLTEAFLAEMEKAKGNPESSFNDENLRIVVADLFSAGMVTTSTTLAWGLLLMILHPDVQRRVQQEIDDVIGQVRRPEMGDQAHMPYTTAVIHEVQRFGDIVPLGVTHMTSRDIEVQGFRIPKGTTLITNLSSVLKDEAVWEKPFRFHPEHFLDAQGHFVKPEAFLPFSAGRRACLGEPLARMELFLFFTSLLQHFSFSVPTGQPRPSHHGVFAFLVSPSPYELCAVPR"}, "[18]": {"biological_target": "Phosphoethanolamine/phosphocholine phosphatase (Homo sapiens, UniProt Q8TCT1)", "sequence (Q8TCT1 whole entry)": "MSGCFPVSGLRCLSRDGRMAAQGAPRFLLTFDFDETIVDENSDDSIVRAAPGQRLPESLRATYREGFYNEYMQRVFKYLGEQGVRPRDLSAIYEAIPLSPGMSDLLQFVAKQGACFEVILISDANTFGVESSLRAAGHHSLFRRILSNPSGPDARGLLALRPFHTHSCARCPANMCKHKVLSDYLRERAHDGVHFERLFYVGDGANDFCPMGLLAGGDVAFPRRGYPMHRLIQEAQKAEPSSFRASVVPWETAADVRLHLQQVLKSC", "assay": "SAR assay for compounds that inhibit PHOSPHO1. [Related pubchem assays (depositor defined):AID1545, AID1565, AID1574]"}, "[19]": {"assay": "NIH-3T3 fibroblast cytotoxicity, dose response, cytotoxicity control, cell-based, fluorescence, Alamar Blue, secondary assay (AID 2327);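 also: NIH-3T3 mouse fibroblasts cultured with fluconazole at 8 µg/mL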", "format": "functional"}, "[20]": {"biological_target": "ATP-dependent molecular chaperone HSP82 (Candida albicans (strain WO-1) (Yeast), UniProt C4YTQ8)", "sequence (C4YTQ8 whole entry)": "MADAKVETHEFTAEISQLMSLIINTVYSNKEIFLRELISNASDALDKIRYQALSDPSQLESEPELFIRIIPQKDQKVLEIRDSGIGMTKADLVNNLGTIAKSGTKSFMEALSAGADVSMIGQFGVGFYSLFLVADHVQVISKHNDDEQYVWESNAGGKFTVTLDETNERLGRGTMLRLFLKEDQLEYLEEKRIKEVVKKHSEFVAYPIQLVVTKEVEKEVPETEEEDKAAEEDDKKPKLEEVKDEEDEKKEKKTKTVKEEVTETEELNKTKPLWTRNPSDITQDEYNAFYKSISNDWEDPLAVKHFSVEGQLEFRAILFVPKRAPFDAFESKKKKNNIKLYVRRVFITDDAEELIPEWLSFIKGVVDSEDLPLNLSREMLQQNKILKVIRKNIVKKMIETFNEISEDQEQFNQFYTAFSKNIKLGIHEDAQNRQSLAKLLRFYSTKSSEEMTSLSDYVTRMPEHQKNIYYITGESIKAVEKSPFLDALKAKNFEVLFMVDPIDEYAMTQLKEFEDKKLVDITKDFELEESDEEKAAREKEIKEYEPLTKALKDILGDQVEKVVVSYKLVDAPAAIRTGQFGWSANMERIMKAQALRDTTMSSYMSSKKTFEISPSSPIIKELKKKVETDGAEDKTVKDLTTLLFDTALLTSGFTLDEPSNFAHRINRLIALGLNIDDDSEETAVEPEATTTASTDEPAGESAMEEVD", "assay": "steroid-induced GRE reporter decrease in yeast – S. cerevisiae, luminescence, Hsp90 inhibitor project, dose response (AID 2400);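 also: beta-galactosidase luminescence from glucocorticoid response element reporter as proxy for Hsp90 function; inhibitor potency where signal loss means Hsp90 inhibition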", "format": "functional, cell-based"}, "[21]": {"assay": "fluconazole-exposed Candida albicans growth modulators – fluorescence, retest, confirmation (AID 2467)", "format": "functional, cell-based"}, "[22]": {"assay": "Vero E6 cell cytotoxicity, dose response, cytotoxicity control for non-replicating M. tuberculosis project, secondary assay (AID 492998)", "format": "functional, VeroE6", "conditions": "Vero C1008"}, "[23]": {"assay": "THP-1 cell cytotoxicity, dose response, cytotoxicity control for non-replicating M. tuberculosis project (AID 489025)", "format": "functional"}, "[24]": {"biological_target": "NACHT, LRR and PYD domains-containing protein 3 (Homo sapiens, UniProt Q96P20)", "sequence (Q96P20 whole entry, the tested form may be a part)": "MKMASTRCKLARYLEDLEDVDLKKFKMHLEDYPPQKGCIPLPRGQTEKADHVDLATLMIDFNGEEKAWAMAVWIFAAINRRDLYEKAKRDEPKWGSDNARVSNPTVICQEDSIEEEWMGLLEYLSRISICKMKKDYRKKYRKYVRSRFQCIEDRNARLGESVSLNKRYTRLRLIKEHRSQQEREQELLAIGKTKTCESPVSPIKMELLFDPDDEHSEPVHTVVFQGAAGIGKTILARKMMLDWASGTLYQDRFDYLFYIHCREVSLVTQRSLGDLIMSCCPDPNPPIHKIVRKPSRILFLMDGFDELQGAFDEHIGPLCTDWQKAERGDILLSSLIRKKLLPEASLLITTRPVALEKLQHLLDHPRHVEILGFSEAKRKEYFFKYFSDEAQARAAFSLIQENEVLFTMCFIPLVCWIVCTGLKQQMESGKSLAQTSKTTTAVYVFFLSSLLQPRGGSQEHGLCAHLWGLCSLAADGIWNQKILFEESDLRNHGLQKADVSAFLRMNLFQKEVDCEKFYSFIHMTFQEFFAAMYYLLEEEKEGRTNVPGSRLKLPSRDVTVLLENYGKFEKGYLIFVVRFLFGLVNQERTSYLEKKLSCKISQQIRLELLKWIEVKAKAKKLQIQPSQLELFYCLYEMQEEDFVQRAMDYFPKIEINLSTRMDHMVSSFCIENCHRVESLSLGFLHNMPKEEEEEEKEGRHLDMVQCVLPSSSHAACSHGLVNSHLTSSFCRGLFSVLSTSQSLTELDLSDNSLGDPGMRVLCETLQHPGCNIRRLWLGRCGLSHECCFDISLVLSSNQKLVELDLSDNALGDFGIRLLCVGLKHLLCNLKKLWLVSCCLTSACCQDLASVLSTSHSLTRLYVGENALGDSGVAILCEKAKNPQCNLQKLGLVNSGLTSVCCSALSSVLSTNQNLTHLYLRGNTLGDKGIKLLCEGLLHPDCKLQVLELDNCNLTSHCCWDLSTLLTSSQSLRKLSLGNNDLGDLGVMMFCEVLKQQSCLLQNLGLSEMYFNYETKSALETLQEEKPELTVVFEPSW", "assay": "NALP3 inhibitors in yeast, dose response, luminescent (AID 488799)", "format": "functional"}, "[25]": {"assay": "cells", "format": "functional"}, "[26]": {"assay": "HepG2 cell cytotoxicity, dose response, cytotoxicity control for non-replicating M. tuberculosis project (AID 489018)", "format": "functional", "conditions": "Mycobacterium tuberculosis"}, "[27]": {"biological_target": "T5, Serine/threonine-protein phosphatase (Candida dubliniensis (strain CD36 / CBS 7987 / NCPF 3949 / NRRLY-17841) (Yeast), UniProt B9W6M3)", "T5 sequence (B9W6M3 whole entry)": "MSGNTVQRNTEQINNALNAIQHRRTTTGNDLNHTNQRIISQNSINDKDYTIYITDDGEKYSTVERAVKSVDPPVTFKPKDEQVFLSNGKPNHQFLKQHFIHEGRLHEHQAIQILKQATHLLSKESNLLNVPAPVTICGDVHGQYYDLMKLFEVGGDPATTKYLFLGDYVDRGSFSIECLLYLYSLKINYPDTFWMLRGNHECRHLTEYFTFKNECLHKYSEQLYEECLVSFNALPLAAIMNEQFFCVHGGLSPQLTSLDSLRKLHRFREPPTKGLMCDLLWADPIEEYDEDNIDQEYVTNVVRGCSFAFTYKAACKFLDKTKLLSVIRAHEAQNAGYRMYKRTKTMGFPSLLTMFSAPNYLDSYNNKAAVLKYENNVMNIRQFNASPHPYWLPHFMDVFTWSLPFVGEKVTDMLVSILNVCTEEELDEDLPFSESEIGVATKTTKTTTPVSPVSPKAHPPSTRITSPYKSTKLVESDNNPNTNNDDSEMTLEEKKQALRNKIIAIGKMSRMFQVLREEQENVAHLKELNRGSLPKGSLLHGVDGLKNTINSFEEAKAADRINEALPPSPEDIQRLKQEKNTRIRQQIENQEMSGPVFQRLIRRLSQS", "assay": "blockers of CaCl2-induced CDRE-lacZ signaling – S. cerevisiae, luminescence, secondary, dose response (AID 2388);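 also: yeast reporter cells carrying a calcineurin-responsive lacZ construct stimulated with calcium chloride; luminescent beta-galactosidase reporter signal in whole cells rather than isolated phosphatase activity; potency for inhibition where a drop in reporter signal means calcineurin blockade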", "format": "functional, cell-based"}}, "note": "Activity calls are given as the source filed them.", "data": [{"compound": "O=c1/c(=C/c2cccc(Br)c2)sc2nc3cc(Br)cnc3n12", "values": [{"measurement": "IC50", "setting": "[1]", "value": "98.3 µM (active)"}, {"measurement": "IC50", "setting": "[2]", "value": "> 100 µM (inactive)"}, {"measurement": "IC50", "setting": "[3]", "value": "> 100 µM (not active)"}, {"measurement": "IC50", "setting": "[4]", "value": "> 100 µM (inactive)"}, {"measurement": "IC50", "setting": "[5]", "value": "> 100 µM (not active)"}, {"measurement": "IC50", "setting": "[6]", "value": "> 100 µM (inactive)"}, {"measurement": "IC50", "setting": "[7]", "value": "> 100 µM (inactive)"}]}, {"compound": "Fc1cccc(NC(=S)Nc2cccnc2)c1", "values": [{"measurement": "IC50", "setting": "[8]", "value": "> 66 µM (inactive)"}, {"measurement": "EC50", "setting": "[9]", "value": "41.9 µM (active)"}, {"measurement": "IC50", "setting": "[10]", "value": "> 66 µM (inactive)"}]}, {"compound": "CCOc1ccccc1C1CC(=O)Nc2cc3c(cc21)OCCO3", "note": "(configuration not stated)", "values": [{"measurement": "EC50", "setting": "[11]", "value": "1.23 µM (active)"}, {"measurement": "EC50", "setting": "[12]", "value": "0.829 µM (active)"}, {"measurement": "IC50", "setting": "[13]", "value": "> 25 µM (inactive)"}, {"measurement": "EC50", "setting": "[14]", "value": "22.3 µM (active)"}, {"measurement": "IC50", "setting": "[15]", "value": "> 80 µM (inactive)"}, {"measurement": "EC50", "setting": "[16]", "value": "0.814 µM (inconclusive)"}]}, {"compound": "Cc1c(OCC(F)(F)F)ccnc1C[S+]([O-])c1nc2ccccc2[nH]1", "note": "(configuration not stated) [LANSOPRAZOLE]", "values": [{"measurement": "AC50", "setting": "[17]", "value": "12.6 µM (inconclusive)"}, {"measurement": "IC50", "setting": "[18]", "value": "0.434 µM (active)"}]}, {"compound": "O=c1c2cc(Br)ccc2nc(-c2ccc([N+](=O)[O-])cc2)n1O", "values": [{"measurement": "EC50", "setting": "[19]", "value": "> 150 µM (inactive)"}, {"measurement": "EC50", "setting": "[20]", "value": "2.56 µM (active)"}, {"measurement": "EC50", "setting": "[21]", "value": "0.585 µM (active)"}, {"measurement": "CC50", "setting": "[22]", "value": "18.4 µM (active)"}, {"measurement": "CC50", "setting": "[23]", "value": "20.3 µM (active)"}, {"measurement": "IC50", "setting": "[24]", "value": "4.91 µM (active)"}, {"measurement": "IC50", "setting": "[25]", "value": "11.9 µM (active)"}, {"measurement": "CC50", "setting": "[26]", "value": "19.9 µM (active)"}, {"measurement": "EC50", "setting": "[27]", "value": "3.07 µM (active)"}]}]}
